From patent publication US11213701B2, “Neuroprotective quinoline sulfonamides” (priority 2018, dated 2022)

Tests used:
[1] = system: SUMOylation of His-RanGap (SUMO-E1 (SAE), SUMO-E2 (UBC9), GST-SUMO); assay: HTRF assay measuring increase in SUMOylation of His-RanGap; format: biochemical; conditions: His-RanGap substrate; HTRF 665/620 ratio; 70 nl of 2 mM compound in DMSO per well; 30 min at room temperature; triplicate
Experimental: Assay measuring increase in SUMOylation of His-RanGap. We utilized an HTRF assay containing SUMO-E1 (SAE), SUMO-E2 (UBC9), GST-SUMO and His-RanGap, a known SUMO substrate, as well as the respective fluorescent antibodies. The assay was run in 1536-well plate format and the selected activators were chosen based on their ability to increase the FRET signal over a baseline level. In 1536-well white plates, 2 μl of phosphate buffered saline (assay buffer) was dispensed into columns 1 and 2, and 2 μl of Mixture 1 (37.5 nM E1 and 100 nM His-RanGap-1) in assay buffer (50 mM Tris-HCl pH 7.4, 0.3 mM DTT, 10 mM MgCl2, 0.005% Tween-20), was dispensed into columns 3-48. Using a pintool, 70 nl of 2 mM compounds in DMSO was dispensed to columns 5-48 and 70 nl of DMSO was dispensed to columns 1-4. Using the Thermo Scientific MultiDrop Combi, 2 μL of Mixture 2 (20 mM ATP, 12.5 nM E2 and 30 nM GST-SUMO in buffer) was dispensed to all wells and incubated for 30 min. at room temperature followed by 1 μl of 500 mM KF. Plates were read on a PheraStar in a HTRF mode (Ex: 337 nm; Em: 620/665 nm). The ratio of fluorescence 665 over 620 was utilized as a readout of the assay. Increase in SUMOylation was calculated by comparison to baseline level. Measurements were done in triplicate.

[2] = system: CSM14.1 neuronal cells; assay: Rescue of CSM14.1 neurons from thapsigargin-induced cell death (ATPlite cell viability); format: cell-based, rat; conditions: 15 μM thapsigargin for 20 h after 2 h preincubation, TG alone causes ~100% cell death
Text: Ability of compounds to rescue CSM14.1 neurons from thapsigargin-induced cell death. To assess the ability of the compounds to rescue neurons from ER stress-induced cell death, the rat striatal neuroprogenitor cell line CSM14.1 was used. Endoplasmic reticulum (ER) stress has been established as the major cause of neuronal loss in stroke, ischemia, and neurodegeneration (Tajiri, S.; Oyadomari, S.; Yano, S.; Morioka, M.; Gotoh, T.; Hamada, J. I.; Ushio, Y.; Mori, M. Cell Death Differ. 2004, 11, 403-415; Kohno, K.; Higuchi, T.; Ohta, S.; Kumon, Y.; Sakaki, S. Neurosci. Lett. 1997, 224, 17-20; Iadecola, C.; Zhang, F.; Casey, R.; Nagayama, M.; Ross, M. E. J. Neurosci. 1997, 17, 9157-9164). Thus, we used the known ER stress-causing agent thapsigargin (TG) to model the compromised state in vitro. TG causes 100% cell death in most cases, and compounds were assessed for neuroprotection by measuring cell viability when dosed at 10 μM. CSM14.1 cells were recovered from cultures by trypsinization and plated in 96-well plates and incubated overnight at 32° C. 5 μl of test compound was added to achieve a final concentration of […]. Salubrinal and DMSO without compound were used as positive and negative controls, respectively. After 2 h of preincubation, TG-containing DMEM was added to give a final concentration of 15 μM and incubated for an additional 20 h. Cell viability was assessed by a cellular ATP content assay (ATPlite, PerkinElmer Life Sciences).

[3] = system: BGMK cells; assay: Rescue of BGMK cells from thapsigargin-induced cell death (CCK-8 cell viability); format: cell-based; conditions: for % BGMK Cell Viability after treatment in Presence of 10 μM compound: 2 hr pretreatment, TG 24 hrs, TG alone causes ~100% cell death
Text: Ability of compounds to rescue BGMK cells from thapsigargin-induced cell death. To assess an orthogonal cell line and further validate the ability of SUMOylation activators to rescue varied cell types, the compounds were also profiled for cytoprotection in BGMK cells. Again, we used the known ER stress-causing agent thapsigargin (TG) to model the compromised state in vitro. BGMKs were subcultured at 1.2×10^4 cells/ml. Wells treated with compound were done so for 2 hr. […] After treatment, all cells were washed and fed fresh DMEM complete media and CCK-8 development vehicle, incubated for 2 hr, and absorbance was measured to assess viability. Controls were DMSO (0% viability) and Salubrinal (47% viability).

Structure (SMILES)	% INCREASE IN SUMOylation over endogenous baseline level [1]	% CSM14.1 Cell Viability after treatment with 15 μM TG in Presence of 10 μM compound [2]	% BGMK Cell Viability after treatment in Presence of 10 μM compound [3]	BGMK cell viability (control) ([3]; positive control after thapsigargin injury, DMSO = 0% viability, control concentration not given) [%]
CC(=O)Nc1ccc(S(=O)(=O)Nc2cccc3cccnc23)cc1 [Compound A1, N-(4-(N-(Quinolin-8-yl)sulfamoyl)phenyl)acetamide]	B (B = 21%-30% increase)	B (B = 51%-60% viability)	C (C = 51%-60% viability)	
O=S(=O)(Nc1cccc2cccnc12)c1ccc(S(=O)(=O)N2CCCC2)cc1 [Compound A2, 4-(Pyrrolidin-1-ylsulfonyl)-N-(quinolin-8-yl)benzenesulfonamide]	D (D = 40%-50% increase in SUMOylation over baseline levels)	C (C = 61%-70% viability of CSM14.1 neurons)	D (D = 61%-70% viability of BGMK cells)	
O=S(=O)(Nc1cccc2cccnc12)c1ccccc1 [Compound A3, N-(Quinolin-8-yl)benzenesulfonamide]	B (B = 21%-30% increase)	A (A = 40%-50% viability)	A (A = 30%-40% viability)	
COc1ccc(NS(=O)(=O)c2ccc3ccccc3c2)c2ncccc12 [Compound A4, N-(5-Methoxy-8-quinolinyl)-2-naphthalenesulfonamide]	C (C = 31%-40% increase)			
O=[N+]([O-])c1ccccc1S(=O)(=O)Nc1cccc2cccnc12 [Compound A5, 2-Nitro-N-(8-quinolinyl)benzenesulfonamide]	C (C = 31%-40% increase)			
Cc1ccc(S(=O)(=O)Nc2cccc3cccnc23)cc1 [Compound A6, 4-Methyl-N-(quinolin-8-yl)benzenesulfonamide]	B (B = 21%-30% increase)	C (C = 61%-70% viability of CSM14.1 neurons)	C (C = 51%-60% viability)	
Cc1cc(C)n(-c2ccc3cccc(NS(C)(=O)=O)c3n2)n1 [Compound A7, N-[2-(3,5-Dimethyl-1H-pyrazol-1-yl)-8-quinolinyl]methanesulfonamide]	B (B = 21%-30% increase)			
CS(=O)(=O)Nc1cccc2cccnc12 [Compound A8, N-(8-Quinolinyl)methanesulfonamide]	B (B = 21%-30% increase)			
COc1cc(NS(=O)(=O)c2ccc3ccccc3c2)c2ncccc2c1 [Compound A9, N-(6-Methoxy-8-quinolinyl)-2-naphthalenesulfonamide]	B (B = 21%-30% increase)			
COc1cc(NS(=O)(=O)c2ccc(C)cc2)c2ncccc2c1 [Compound A10, N-(6-Methoxy-8-quinolinyl)-4-methylbenzenesulfonamide]	C (C = 31%-40% increase)			
O=C(/C=C/c1ccccc1)NC(NC(=S)Nc1cccc2cccnc12)C(Cl)(Cl)Cl (stereo not shown) [Salubrinal, reference compound]				47
